Laboratory results: patent US20220274979A1 (Bayer Pharma Aktiengesellschaft, priority 2018, published 2022)

target: T1, Epidermal Growth Factor Receptor (EGFR) (Homo sapiens, UniProt P00533); assay: EGFR kinase assay (TR-FRET); assay type: biochemical; settings: 10 μM ATP; read-out: EGFR kinase inhibition IC50
T1 construct: purchased Sigma-Aldrich E3641
Source text: EGFR inhibitory activity of compounds of the present invention was quantified employing the TR-FRET based EGFR assay as described in the following paragraphs.
Epidermal Growth Factor Receptor (EGFR) affinity purified from human carcinoma A431 cells (Sigma-Aldrich, # E3641) was used as kinase. As substrate for the kinase reaction the biotinylated peptide biotin-Ahx-[…] (SEQ ID NO: 8, C-terminus in amid form) was used which can be purchased e.g. form the company Biosyntan GmbH (Berlin-Buch, Germany).
For the assay 50 nL of a 100 fold concentrated solution of the test compound in DMSO was pipetted into a black low volume 384 well microtiter plate (Greiner Bio-One, Frickenhausen, Germany), 2 μL of a solution of EGFR in aqueous assay buffer [50 mM Hepes/HCl pH 7.0, 1 mM MgCl2, 5 mM MnCl2, 0.5 mM activated sodium ortho-vanadate, 0.005% (v/v) Tween-20]were added and the mixture was incubated for […] at 22° C. to allow pre-binding of the test compounds to the enzyme before the start of the kinase reaction. Then the kinase reaction was started by the addition of 3 μL of a solution of adenosine-tri-phosphate (ATP, 16.7 μM=>final conc. in the 5 μL assay volume is 10 μM) and substrate (1.67 μM =>final conc. in the 5 μL assay volume is 1μM) in assay buffer and the resulting mixture was incubated for a reaction time of […] at 22° C. The concentration of EGFR was adjusted depending of the activity of the enzyme lot and was chosen appropriate to have the assay in the linear range, typical concentration were about 3 U/ml. The reaction was stopped by the addition of 5 μl of a solution of HTRF detection reagents (0.1 μM streptavidine-XL665 [Cis Biointernational]and 1 nM PT66-Tb-Cryptate, an terbium-cryptate labelled anti-phospho-tyrosine antibody from Cis Biointernational [instead of the PT66-Tb-cryptate PT66-Eu-Chelate from Perkin Elmer can also be used]) in an aqueous EDTA-solution (80 mM EDTA, 0.2% (w/v) bovine serum albumin in 50 mM HEPES pH 7.5).
The resulting mixture was incubated 1 h at 22° C. to allow the binding of the biotinylated phosphorylated peptide to the streptavidine-XL665 and the PT66-Eu-Chelate. Subsequently the amount of phosphorylated substrate was evaluated by measurement of the resonance energy transfer from the PT66-Tb-Cryptate to the streptavidine-XL665. Therefore, the fluorescence emissions at 620 nm and 665 nm after excitation at 337 nm were measured in a HTRF reader, e.g. a Pherastar (BMG Labtechnologies, Offenburg, Germany) or a Viewlux (Perkin-Elmer). The ratio of the emissions at 665 nm and at […] was taken as the measure for the amount of phosphorylated substrate.

T1 sequence (P00533 25-1210): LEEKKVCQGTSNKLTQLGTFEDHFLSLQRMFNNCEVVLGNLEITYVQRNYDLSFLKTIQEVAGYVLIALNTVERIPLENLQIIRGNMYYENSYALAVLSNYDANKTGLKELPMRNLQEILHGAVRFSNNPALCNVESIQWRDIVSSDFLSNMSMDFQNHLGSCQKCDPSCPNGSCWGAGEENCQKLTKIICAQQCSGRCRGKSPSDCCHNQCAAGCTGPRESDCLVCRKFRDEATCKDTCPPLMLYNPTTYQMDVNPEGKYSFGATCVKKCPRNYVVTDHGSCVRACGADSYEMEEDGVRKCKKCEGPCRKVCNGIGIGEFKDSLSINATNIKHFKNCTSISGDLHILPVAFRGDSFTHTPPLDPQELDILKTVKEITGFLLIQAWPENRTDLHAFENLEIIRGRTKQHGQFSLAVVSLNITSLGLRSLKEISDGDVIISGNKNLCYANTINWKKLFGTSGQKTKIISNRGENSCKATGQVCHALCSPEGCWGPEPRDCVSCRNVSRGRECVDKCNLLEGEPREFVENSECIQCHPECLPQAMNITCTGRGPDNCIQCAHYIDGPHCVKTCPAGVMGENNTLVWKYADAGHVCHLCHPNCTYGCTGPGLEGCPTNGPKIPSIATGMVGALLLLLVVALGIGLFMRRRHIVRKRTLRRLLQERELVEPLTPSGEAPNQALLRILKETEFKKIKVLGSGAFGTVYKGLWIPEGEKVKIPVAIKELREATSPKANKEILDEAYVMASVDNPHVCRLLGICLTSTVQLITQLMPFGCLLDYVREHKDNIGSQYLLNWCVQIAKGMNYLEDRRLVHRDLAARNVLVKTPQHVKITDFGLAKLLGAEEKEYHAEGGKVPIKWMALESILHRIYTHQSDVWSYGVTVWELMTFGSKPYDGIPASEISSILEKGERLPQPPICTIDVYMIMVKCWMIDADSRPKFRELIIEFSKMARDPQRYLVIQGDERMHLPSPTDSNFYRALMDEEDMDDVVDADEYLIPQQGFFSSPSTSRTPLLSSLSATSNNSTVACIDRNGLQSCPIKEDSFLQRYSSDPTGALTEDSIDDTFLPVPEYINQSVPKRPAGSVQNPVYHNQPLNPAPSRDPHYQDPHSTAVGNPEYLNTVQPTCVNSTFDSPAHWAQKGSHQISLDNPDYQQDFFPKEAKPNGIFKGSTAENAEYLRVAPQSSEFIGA

| Compound | IC50 [µM] |
| --- | --- |
| CC(=O)N[C@H]1CCN(c2cc3c(NC(C)c4ccc(-c5ccccc5CN(C)C)s4)nc(C)nc3cn2)C1 (single isomer, unassigned) [Example 81] | > 20 |
| CC(=O)N[C@H]1CCN(c2cc3c(NC(C)c4ccc(-c5ccccc5CN(C)C)s4)nc(C)nc3cn2)C1 (single isomer, unassigned) [Example 82] | > 20 |
| CC(=O)N[C@@H]1CCN(c2cc3c(NC(C)c4ccc(-c5ccccc5CN(C)C)s4)nc(C)nc3cn2)C1 (single isomer, unassigned) [Example 80] | > 20 |
| CC(=O)N[C@@H]1CCN(c2cc3c(NC(C)c4ccc(-c5ccccc5CN(C)C)s4)nc(C)nc3cn2)C1 (single isomer, unassigned) [Example 79] | > 20 |
